Assay results reported in patent publication US20090093538A1, “Method for treating cancer” (priority 2007, published 2009).

Legend:
Hsp70 [1] = test: Phase I trial: plasma Hsp70 (sandwich ELISA); assay type: in vivo, human; settings: co-administered with paclitaxel
Experimental: Plasma Hsp70 was measured by a sandwich ELISA kit (Stressgen Bioreagents Victoria, British Columbia, CANADA) according to a modified protocol in house. In brief, Hsp70 in plasma specimens and serial concentrations of Hsp70 standard were captured onto 96-well plate on which anti-Hsp70 antibody was coated. Then captured Hsp70 was detected with a biotinylated anti-Hsp70 antibody followed by incubation with europium-conjugated streptavidin. After each incubation, unbound materials were removed by washing. Finally, antibody-Hsp70 complex was measured by time resolved fluorometry of europium. Concentration of Hsp70 was calculated from a standard curve.

MSK1 = MSK1 phosphorylation, Western blot, MDA-MB-435 cells; assay type: cell-based, human; settings: 10, 50, 100, 500 or 1000 nM, 4 hours
Experimental: (§1) After treatment the cells were lysized and used for Western blot analysis.
Samples were run on a SDS-PAGE gel and proteins were transferred onto a nitrocellulose membrane by a semi-dry transfer. Nitrocellulose was blocked with 5% skim milk in TBS with 0.5% Tween at room temperature for 1 hour and then probed with anti-p-MSK1 (Thr581) (#9595, Cell Signaling) antibody. The nitrocellulose was then probed with secondary antibodies, HRP-conjugated goat anti-rabbit IgG and HRP-conjugated horse anti-mouse IgG (#7074, #7076, Cell Signaling). LumiGLO reagent, 20× Peroxide (#7003, Cell Signaling) was used to visualize gel (see FIG. 36).
Samples were run on a SDS-PAGE gel and proteins were transferred onto a nitrocellulose membrane by a semi-dry transfer. Nitrocellulose was blocked with 5% skim milk in TBS with 0.5% Tween at room temperature for 1 hour and then probed with anti-p-MSK1 (Thr581) (#9595, Cell Signaling) antibody. Tubulin was used as a normalization control and was probed with Anti-Tubulin (T9026, Sigma) antibody.

p38 kinase = test: p38 phosphorylation, Western blot, MDA-MB-435 cells; assay type: cell-based, human; settings: 10, 50, 100, 500 or 1000 nM, 4 hours
Experimental: as §1
Samples were run on a SDS-PAGE gel and proteins were transferred onto a nitrocellulose membrane by a semi-dry transfer. Nitrocellulose was blocked with 5% skim milk in TBS with 0.5% Tween at room temperature for 1 hour and then probed with anti-phospho-p38 (Cell Signaling, #9216) antibody. The nitrocellulose was then probed with secondary antibodies, HRP-conjugated goat anti-rabbit IgG and HRP-conjugated horse anti-mouse IgG (#7074, #7076, Cell Signaling). LumiGLO reagent, 20× Peroxide (#7003, Cell Signaling) was used to visualize gel (see FIG. 35).

Hsp70 [2] = test: Cell surface expression of Hsp70, MCF-7 cells (immunofluorescence); assay type: cell-based, human; settings: MCF-7, 0.5 μM, 3 hrs
Experimental: (§2) After treatment, cells were rinsed one time in PBS then fixed in 2% Paraformaldehyde at room temperature for 20 minutes. Slides with the fixed cells were rinsed with PBS two times. Primary antibody mouse monoclonal anti-Hsp70 (Stressgen SPA-8 10) was diluted 1:100 in PBS and the slides were incubated 1 hour at 37° C. The slides were rinsed two times with PBS. Secondary antibody anti-mouse AlexaFluor 488 (Molecular Probes A-11001) was diluted 1:500 in PBS and the slides were incubated 30 min at 37° C. The slides were rinsed two times in PBS. DAPI (Molecular Probes D-3571) were diluted 1:10,000 in PBS and the slides were incubated at room temperature in dark for 5 min. The slides were rinsed two times in PBS, then once in deionized water and left to dry in dark until almost completely dry. Coverslips were mounted with Prolong Anti-fade Mounting Media (Molecular Probes P-748 1). The images were captured with a monochrome CCD camera SenSys (see FIGS. 27A-D and 28A-D) or by confocal microscopy (see FIG. 29A-E). In FIGS. 27A-D and 28A-D, the bright pink color on the surface of the MCF-7 cells (FIG. 27A-D) or CEM cells (FIG. 28A-D) indicates Hsp70 on the surface of the cells. In FIG. 29A-E the bright green color on the surface of the cell indicates Hsp70 on the surface of the HT29 cells.

[3] = test system: Hs294T (or MDA-MB-435) cells; test: Affymetrix transcriptional profiling; assay type: cell-based, human; settings: 100 nM, 6 hours
Experimental: RNA was isolated from the cells 6 hours after treatment using the RNeasy kit according to the manufacturers instructions (Qiagen Cat. # 71404) and RNA quality was confirmed by spectrophotometric examination. cDNA was synthesized using the One-Cycle cDNA Synthesis Kit (Affymetrix Cat. # 900431) according to the manufacturers instructions. cDNA was labeled using the GeneChip IVT Labeling Kit (Affymetrix Cat. #900449) and analyzed in duplicate on the Affymetrix Human Genome U133Plus 2.0 gene chip array according to standard Affymetrix protocols. Data sheets from the Affymetrix Gene Chip Scanner 3000 were imported into Microsoft Excel and filtered by the following criteria: greater than or equal to 1.5 fold increase, greater than or equal to 0.4SE between replicates; and 50 (low stringency) or 500 (high stringency) for the lowest signal.
NAC is the rate-limiting amino acid for the production of the antioxidant glutathione. Addition of NAC to cells increases the levels of endogenous glutathione which in turn blocks oxidative stress and ROS generation. […] RNA was isolated from the cells 6 hours after treatment and Affymetrix analysis was performed as above.

Hsp70 [4] = test: Cell surface expression of Hsp70, CEM cells (immunofluorescence); assay type: cell-based; settings: 3 hrs
Experimental: as §2

MDA-MB-435 cells = test: Cell viability (Cell Counting Kit-8); assay type: cell-based, human; settings: Homo sapiens, MDA-MB-435; 500 nM, 72 hours post-drug treatment; read-out: reduction of cell viability
Experimental: The cells were further cultured at 37° C. for 72 hours and cell viability was measured with Cell Counting Kit-8 (Dojindo Laboratories, Cat# CK04).

Hsp70 [5] = test: Hsp70 secretion by cultured tumor cells (ELISA); assay type: cell-based, human; settings: MDA-MB-435, 0.04 μM or 0.2 μM, 72 h
Experimental: MDA-MB-435 tumor cells were seeded at 15,000 cells/150 μl/well of 48-well plate and cultured in DMEM supplemented with 10% fetal bovine serum. The compounds were dissolved in dimethyl sulfoxide (DMSO) then a solution was prepared containing 0.04 μM or a 0.2 μM in 25% DMSO and 75% culture medium. […] The medium was then separated from the cells and Hsp70 was measured by ELISA kit from Stressgen. Cell viability was checked by CCK-8 cell count assay (Dojindo) at 88 hr.

[6] = human, in vivo

With CN(NC(=O)CC(=O)NN(C)C(=S)c1ccccc1)C(=S)c1ccccc1 [Compound 1] the “induction of Hsp70 protein in plasma” value (Hsp70 [1]) was “dose dependent”, the “phosphorylation of MSK1” value (MSK1) was “induces the phosphorylation of MSK1 in a dose dependent manner” and the “phosphorylation and activation of p38 kinase” value (p38 kinase) was “induces the phosphorylation and activation of p38 kinase in a dose dependent manner”. For the same compound, the “Hsp70 on the surface of cells” value (Hsp70 [2]) was “bright pink fluorescent color on the surface of the cells indicating Hsp70”, the “Hsp70 on the surface of cells” value (Hsp70 [2]; then 2 hrs recovery without Compound 1) was “stronger than immediately following treatment with Compound 1” and the “increase in transcription of Hsp70” value [3] was “over 300 fold”. The “induction of heat shock and metallothionein genes” value ([3]; Hs294T melanoma cells) was “robustly induced heat shock and metallothionein genes”, the “gene expression profile (heat shock proteins, metallothioneins, antioxidants)” value ([3]; MDA-MB-435 cells) was “induces an oxidative stress signature profile” and the “Hsp70 on the surface of cells” value (Hsp70 [4]; 0.05 μM) was “bright pink fluorescent color on the surface of the cells indicating Hsp70”. For the same compound, the “Hsp70 on the surface of cells” value (Hsp70 [4]; 0.1 μM) was “brighter than when cells were treated with 0.05 μM of Compound 1”, the “Hsp70 on the surface of cells” value (Hsp70 [4]; 0.5 μM) was “brighter than when cells were treated with 0.05 μM of Compound 1 but about the same as cells treated with 0.1 KIM” and the cytotoxicity at 0.5 µM (MDA-MB-435 cells) was ~90%. The “secretion of Hsp70” value (Hsp70 [5]) was “increased the secretion of Hsp70 by the cells in a dose dependent manner” and the serious side effects [6] was “No serious side effects specifically attributable to Compound 1 were observed”.
